test system: Scirpus juncoides; assay: Test Example 1: herbicidal effect test by treatment of rice paddy soil (immediately after seeding); assay type: in vivo; details: 120 g/10a active ingredient, dry weight vs untreated area, 14 days after treatment
Method: (§1) Herbicidal Effect Test by Treatment of Rice Paddy Soil
(§2) Wagner pots with an area of 1/10000 ares were filled with a paddy soil, and after adding water, a compound fertilizer (N:P:K=17:17:17) was added, followed by soil puddling. Then, Echinochloa crus-galli, broad leaf weeds (Lindernia pyxidaria and Monochoria vaginalis) and Scirpus juncoides, 30 seeds each, were sown in a depth of 0 to 1 cm. Water was poured immediately after seeding, and the water depth was kept at about 3 cm. The subsequent management was conducted in a glass greenhouse. Immediately after that, emulsions prepared using the compounds in Table 3 below according to Formulation Example 5 were diluted with water, and a certain amount of the water-diluted agent solutions were dropped. The converted amount of the applied active ingredient corresponded to 120 g per 10 ares.
(§3) This test was conducted in a double system per one agent solution concentration area, and the herbicidal rates (%) were determined by the following equation (Math. 1) on 14 days after the treatment with the agents. Herbicidal Rate (%)={1-(Average Dry Weight (g) of Plant of Treated Area)/(Average Dry Weight (g) of Plant of Untreated Area)}×100 [Math. 1]
(§4) The compound numbers in Table 3 are the same as those in Table 1 and Table 2 above.

Compound | Herbicidal rate (%) Scirpus juncoides
Cc1c(Cc2ccccc2N(C(=O)OCC(C)C)S(=O)(=O)C(F)(F)F)c(=O)on1CC(C)C [Compound 1-671] | 90%
Cc1c(Cc2ccccc2N(S(=O)(=O)C(F)(F)F)S(=O)(=O)C(F)(F)F)c(=O)on1CC1CCCCC1 [Compound 1-994] | 90%
COCCn1oc(=O)c(Cc2ccccc2N(S(=O)(=O)C(F)(F)F)S(=O)(=O)C(F)(F)F)c1C [Compound 1-996] | 90%
Cc1c(Cc2ccccc2N(S(=O)(=O)C(F)(F)F)S(=O)(=O)C(F)(F)F)c(=O)on1Cc1ccccc1F [Compound 1-1012] | 100%

test system: Echinochloa crus-galli; assay: as above; assay type: in vivo; details: 120 g/10a active ingredient, dry weight vs untreated area, 14 days after treatment
Method: as §1, §2, §3, §4

Compound | Herbicidal rate (%) Echinochloa crus-galli
Cc1c(Cc2ccccc2N(C(=O)OCC(C)C)S(=O)(=O)C(F)(F)F)c(=O)on1CC(C)C [Compound 1-671] | 90%
Cc1c(Cc2ccccc2N(S(=O)(=O)C(F)(F)F)S(=O)(=O)C(F)(F)F)c(=O)on1CC1CCCCC1 [Compound 1-994] | 90%
COCCn1oc(=O)c(Cc2ccccc2N(S(=O)(=O)C(F)(F)F)S(=O)(=O)C(F)(F)F)c1C [Compound 1-996] | 90%
Cc1c(Cc2ccccc2N(S(=O)(=O)C(F)(F)F)S(=O)(=O)C(F)(F)F)c(=O)on1Cc1ccccc1F [Compound 1-1012] | 90%

test system: broad leaf weeds (Lindernia pyxidaria and Monochoria vaginalis); assay: as above; assay type: in vivo; details: Lindernia pyxidaria, 120 g/10a active ingredient, dry weight vs untreated area, 14 days after treatment
Method: as §1, §2, §3, §4

Compound | Herbicidal rate (%) Lindernia pyxidaria
Cc1c(Cc2ccccc2N(C(=O)OCC(C)C)S(=O)(=O)C(F)(F)F)c(=O)on1CC(C)C [Compound 1-671] | 90%
Cc1c(Cc2ccccc2N(S(=O)(=O)C(F)(F)F)S(=O)(=O)C(F)(F)F)c(=O)on1CC1CCCCC1 [Compound 1-994] | 100%
COCCn1oc(=O)c(Cc2ccccc2N(S(=O)(=O)C(F)(F)F)S(=O)(=O)C(F)(F)F)c1C [Compound 1-996] | 80%
Cc1c(Cc2ccccc2N(S(=O)(=O)C(F)(F)F)S(=O)(=O)C(F)(F)F)c(=O)on1Cc1ccccc1F [Compound 1-1012] | 100%

same assay, conditions: Monochoria vaginalis, 120 g/10a active ingredient, dry weight vs untreated area, 14 days after treatment

Compound | Herbicidal rate (%) Monochoria vaginalis
Cc1c(Cc2ccccc2N(C(=O)OCC(C)C)S(=O)(=O)C(F)(F)F)c(=O)on1CC(C)C [Compound 1-671] | 90%
Cc1c(Cc2ccccc2N(S(=O)(=O)C(F)(F)F)S(=O)(=O)C(F)(F)F)c(=O)on1CC1CCCCC1 [Compound 1-994] | 60%
COCCn1oc(=O)c(Cc2ccccc2N(S(=O)(=O)C(F)(F)F)S(=O)(=O)C(F)(F)F)c1C [Compound 1-996] | 80%
Cc1c(Cc2ccccc2N(S(=O)(=O)C(F)(F)F)S(=O)(=O)C(F)(F)F)c(=O)on1Cc1ccccc1F [Compound 1-1012] | 100%

test system: Scirpus juncoides; assay: Test Example 2: herbicidal effect test by treatment during growing period in paddy rice cultivation (seven days after seeding); assay type: in vivo; details: 120 g/10a active ingredient, assessed 14 days after treatment, dry weight vs untreated area
Method: as §3
(§5) Herbicidal Effect Test by Treatment During Growing Period in Paddy Rice Cultivation
as §2, with “was mixed,” for “was added,”, “greenhouse. Emulsions” for “greenhouse. Immediately after that, emulsions”, “Table 4” for “Table 3”, “with water seven days after seeding,” for “with water,”, “ares. The test was conducted in a double system per one agent solution concentration area, and the herbicidal rates (%) were determined by the equation (Math. 1) on 14 days after the treatment with the agents. […] The compound numbers in Table 4 are the same as those in Table 1 and Table 2 above.” for “ares.”

Compound | Herbicidal rate (%) Scirpus juncoides
Cc1c(Cc2ccccc2N(C(=O)OCC(C)C)S(=O)(=O)C(F)(F)F)c(=O)on1CC(C)C [Compound 1-671] | 90%
Cc1c(Cc2ccccc2N(S(=O)(=O)C(F)(F)F)S(=O)(=O)C(F)(F)F)c(=O)on1CC1CCCCC1 [Compound 1-994] | 80%
COCCn1oc(=O)c(Cc2ccccc2N(S(=O)(=O)C(F)(F)F)S(=O)(=O)C(F)(F)F)c1C [Compound 1-996] | 90%
Cc1c(Cc2ccccc2N(S(=O)(=O)C(F)(F)F)S(=O)(=O)C(F)(F)F)c(=O)on1Cc1ccccc1F [Compound 1-1012] | 90%

test system: Echinochloa crus-galli; assay: as above; assay type: in vivo; details: 120 g/10a active ingredient, assessed 14 days after treatment, dry weight vs untreated area
Method: as §3, §5
as §2, with “was mixed,” for “was added,”, “greenhouse. Emulsions” for “greenhouse. Immediately after that, emulsions”, “Table 4” for “Table 3”, “with water seven days after seeding,” for “with water,”, “ares. The test was conducted in a double system per one agent solution concentration area, and the herbicidal rates (%) were determined by the equation (Math. 1) on 14 days after the treatment with the agents. […] The compound numbers in Table 4 are the same as those in Table 1 and Table 2 above.” for “ares.”

Compound | Herbicidal rate (%) Echinochloa crus-galli
Cc1c(Cc2ccccc2N(C(=O)OCC(C)C)S(=O)(=O)C(F)(F)F)c(=O)on1CC(C)C [Compound 1-671] | 90%
Cc1c(Cc2ccccc2N(S(=O)(=O)C(F)(F)F)S(=O)(=O)C(F)(F)F)c(=O)on1CC1CCCCC1 [Compound 1-994] | 90%
COCCn1oc(=O)c(Cc2ccccc2N(S(=O)(=O)C(F)(F)F)S(=O)(=O)C(F)(F)F)c1C [Compound 1-996] | 70%
Cc1c(Cc2ccccc2N(S(=O)(=O)C(F)(F)F)S(=O)(=O)C(F)(F)F)c(=O)on1Cc1ccccc1F [Compound 1-1012] | 60%

test system: broad leaf weeds (Lindernia pyxidaria and Monochoria vaginalis); assay: as above; assay type: in vivo; details: Lindernia pyxidaria, 120 g/10a active ingredient, assessed 14 days after treatment, dry weight vs untreated area
Method: as §3, §5
as §2, with “was mixed,” for “was added,”, “greenhouse. Emulsions” for “greenhouse. Immediately after that, emulsions”, “Table 4” for “Table 3”, “with water seven days after seeding,” for “with water,”, “ares. The test was conducted in a double system per one agent solution concentration area, and the herbicidal rates (%) were determined by the equation (Math. 1) on 14 days after the treatment with the agents. […] The compound numbers in Table 4 are the same as those in Table 1 and Table 2 above.” for “ares.”

Compound | Herbicidal rate (%) Lindernia pyxidaria
Cc1c(Cc2ccccc2N(C(=O)OCC(C)C)S(=O)(=O)C(F)(F)F)c(=O)on1CC(C)C [Compound 1-671] | 60%
Cc1c(Cc2ccccc2N(S(=O)(=O)C(F)(F)F)S(=O)(=O)C(F)(F)F)c(=O)on1CC1CCCCC1 [Compound 1-994] | 60%
COCCn1oc(=O)c(Cc2ccccc2N(S(=O)(=O)C(F)(F)F)S(=O)(=O)C(F)(F)F)c1C [Compound 1-996] | 70%
Cc1c(Cc2ccccc2N(S(=O)(=O)C(F)(F)F)S(=O)(=O)C(F)(F)F)c(=O)on1Cc1ccccc1F [Compound 1-1012] | 80%

same assay, conditions: Monochoria vaginalis, 120 g/10a active ingredient, assessed 14 days after treatment, dry weight vs untreated area

Compound | Herbicidal rate (%) Monochoria vaginalis
Cc1c(Cc2ccccc2N(C(=O)OCC(C)C)S(=O)(=O)C(F)(F)F)c(=O)on1CC(C)C [Compound 1-671] | 90%
Cc1c(Cc2ccccc2N(S(=O)(=O)C(F)(F)F)S(=O)(=O)C(F)(F)F)c(=O)on1CC1CCCCC1 [Compound 1-994] | 80%
COCCn1oc(=O)c(Cc2ccccc2N(S(=O)(=O)C(F)(F)F)S(=O)(=O)C(F)(F)F)c1C [Compound 1-996] | 80%
Cc1c(Cc2ccccc2N(S(=O)(=O)C(F)(F)F)S(=O)(=O)C(F)(F)F)c(=O)on1Cc1ccccc1F [Compound 1-1012] | 80%
